Laboratory results from publication PMC3581469, “Bombesin Analogue-Mediated Delivery Preferentially Enhances the Cytotoxicity of a Mitochondria-Disrupting Peptide in Tumor Cells” (PLoS ONE, 2013).
Where no end group is shown, it is not given here.

Legend:
DU145 and PC-3 cells = assay: Cytotoxicity assay (CCK-8 cell viability); type: cell-based, human; settings: 1 h; for cytotoxicity (in words): increasing concentrations, CCK-8
Experimental: (§1) Cells were seeded at a density of 1×10^4 per well in a 96-well plate, were grown overnight and were co-incubated at 37°C for 1 h with increasing concentrations of the peptide in 100 µl RPMI 1640 supplemented with 2% FBS. Subsequently, the peptide solution was replaced by 100 µl fresh medium. To determine cell viability, 10 µl CCK-8 was added to the well, and the cultures were incubated for an additional 2–4 h. The absorbance was then measured at 450 nm (with a reference wavelength at 620 nm), and cell viability was calculated as the percentage of the value relative to the absorbance of the cells incubated without peptide. The IC50 values of the peptides were calculated from the respective cell viability curves. Simultaneously, the LIVE/DEAD BacLight bacterial viability kit was used to visualize the cytotoxicity of the peptides. Combined incubation with SYTO 9 (15 µM) and propidium iodide (PI, 2.5 µg/ml) stained the living cells fluorescent green and the dead cells fluorescent red due to their distinct cell membrane permeability.

DU145 tumor xenografts = assay: DU145 tumor xenograft model in BALB/c nude mice; type: in vivo, mouse
Experimental: (§2) All of the protocols used for in vivo experiments were approved by the University Animal Care and Use Committee. Four to six-week-old male BALB/c nu/nu mice were purchased from the University Animal Production Center. Seven million DU145 cells suspended in 200 µl PBS were subcutaneously injected into the left flank region of mice. On day 7–9 post inoculation, the mice were randomized into three groups (n = 5) and intraperitoneally (i.p.) received 15 mg/kg B28Bn(6–14), B28 or an equivalent volume of PBS once daily for 7 consecutive days. Alternatively, the mice intratumorally received 5 mg/kg drug once daily for 5 consecutive days. The tumor volume was calculated as length×width^2×0.5. At the end of i.p. therapy, the animals were sacrificed and the major organs were excised, paraffin-embedded, sectioned, and stained with hematoxylin/eosin (H&E) for the examination of histopathologic architecture. To evaluate the cytotoxicity on tumor cells in vivo, a single dose of 50 µg of peptide in 50 µl of PBS was injected into the tumor graft (200–300 mm^3), according to the method described previously. At 24 h post-injection, the animals were sacrificed, and the tumor tissues were routinely stained with H&E.

DU145 tumor cells = assay: Live/Dead staining with SYTO 9 and PI; type: cell-based, human; settings: 5 µM, 45 min, SYTO 9/PI
Experimental: as §1

DU145 cells [1] = assay: LDH release (Cytotox 96 non-radioactive cytotoxicity assay), necrosis; type: cell-based, human; settings: 5 µM, 1 h
Experimental: Necrosis was evaluated with the Cytotox 96 non-radioactive cytotoxicity assay kit by detecting the release of lactate dehydrogenase (LDH) from necrotic cells. Ten-thousand cells were plated in a 96-well plate and treated with the peptide in 100 µl of RMPI 1640 supplemented with 2% FBS for 10 min-2 h, followed by LDH detection with 50 µl of culture supernatant from the treated cells, according to the manufacturer’s instruction. The LDH level was presented as the percentage relative to that of cells treated with 0.9% Triton X-100.

liver and kidney = settings: mouse, in vivo, ip, 15 mg/kg
Experimental: as §2

DU145 cells [2] = assay: FITC-Annexin V/PI staining, FACS analysis of apoptosis and necrosis; type: cell-based, human
Experimental: Phosphatidylserine exposed on the outer membrane reflects the early stages of apoptosis and can be detected by FITC-Annexin V and PI staining. The cells were detached and washed with medium. One-hundred and fifty thousand cells were suspended in 300 µl of RMPI 1640 supplemented with 10% FBS and treated with the peptide at the indicated concentration and time points. Then, the cells were subjected to dual staining with FITC-Annexin V and PI, according to the manual. The cells were observed under a fluorescence microscope and subjected to FACS analysis. Cells showing Annexin V−/PI-, Annexin V+/PI-, and Annexin V+/PI+ signals are considered to be living, early stage apoptotic, and either late stage apoptotic or necrotic, respectively. To assess DNA damage during apoptosis, the TUNEL assay was performed in accordance with the manufacturer’s instruction. Briefly, after treatment for 30 min-1 h with the peptide, cells were washed twice with PBS, fixed with 4% paraformaldehyde for 10–15 min at room temperature, permeabilized with 0.1% Triton X-100 for 2 min on ice, incubated in the reaction mixture and observed under a fluorescence microscope. FITC labeled nucleotides incorporated into the nuclei reflects DNA degradation. For investigating the activation of caspases, cells were preincubated with the Pan-caspase inhibitor, Z-VAD-FMK (100 µM), for 2 h before peptide treatment in the cytotoxicity assay. Immunofluorescence staining of caspase-3 was performed by using the Alexa Fluor 488-conjugated antibody against human cleaved caspase-3. The activation of caspase-3 was further verified by using a caspase-3 colorimetric assay kit (Genescript, Nanjing, China) with TNF-related apoptosis-inducing ligand (TRAIL) as a positive control. The activity of caspase-3 was presented as fold of peptide-treated cells vs untreated cells.

[3] = test system: tumor cells (PC-3, DU145, MCF-7, MDA-MB-435S); type: cell-based, human
Experimental: as §1

[4] = test system: normal cells (HSF, PrSC, SMC, MRC-5); type: cell-based, human; settings: 1 h
Experimental: as §1

With “GGLRSLGRKILRAWKKYGQRLGNQ-NH2 [B28Bn(2–7)]” the “cytotoxicity / loss of cell viability” value (DU145 and PC-3 cells; 10 µM peptide, CCK-8, RPMI 1640 with 2% FBS) was “less than 40%” and the “cytotoxicity (in words)” value (DU145 and PC-3 cells) was “moderate cytotoxicity”.
With `CSCC[C@H](NC(=O)[C@H](CC(C)C)NC(=O)[C@H](Cc1c[nH]cn1)NC(=O)CNC(=O)[C@@H](NC(=O)[C@H](C)NC(=O)[C@H](Cc1c[nH]c2ccccc12)NC(=O)[C@H](CCC(N)=O)NC(=O)[C@@H](N)CC(N)=O)C(C)C)C(N)=O` [Bn(6–14), reference compound] the “cytotoxicity (in words)” value (DU145 and PC-3 cells) was “no obvious cytotoxicity”.
“GGLRSLGRKILRAWKKYGNQWAVGHLM-NH2 [B28Bn(6–14)]” was tested, and the mean tumor volume (DU145 tumor xenografts; intraperitoneal 15 mg/kg once daily for 7 days, day 30, n = 5, mean±SD, PBS 421±87) was 179±42 mm^3, the mean tumor volume (DU145 tumor xenografts; intratumoral 5 mg/kg once daily for 5 days, day 45, n = 5, mean±SD, PBS 1344±286) was 225±124 mm^3 and the “dead cells (red fluorescence)” value (DU145 tumor cells) was “over 90%”. For the same molecule, the “necrotic cells detected by LDH assay (percentage of max release with 0.9% Triton X-100)” value (DU145 cells [1]) was “less than 10%”, the “histological damage in liver and kidneys” value (liver and kidney) was “no obvious histological damage” and the “Annexin V+/PI+ cells (necrotic)” value (DU145 cells [2]; 2.5 µM, 10 min, 0 µM 0.24) was 1.94%. For the same molecule, the “early apoptotic cells (Annexin V+/PI-)” value (DU145 cells [2]; 2.5 µM, 10 min, 0 µM 3.80) was 18.05%, the “Annexin V+/PI+ cells (necrotic)” value (DU145 cells [2]; 5 µM, 1 min) was 8.84% and the “early apoptotic cells (Annexin V+/PI-)” value (DU145 cells [2]; 5 µM, 1 min, 0 min 3.63) was 36.99%. The “Annexin V+/PI+ cells (necrotic)” value (DU145 cells [2]; 5 µM, 5 min) was 16.25%, the “early apoptotic cells (Annexin V+/PI-)” value (DU145 cells [2]; 5 µM, 5 min) was 32.94% and the “Annexin V+/PI+ cells (necrotic)” value (DU145 cells [2]; 5 µM, 10 min) was 15.30%. For the same molecule, the “early apoptotic cells (Annexin V+/PI-)” value (DU145 cells [2]; 5 µM, 10 min) was 39.19%, the “Annexin V+/PI+ cells (necrotic)” value (DU145 cells [2]; 5 µM, 15 min) was 36.88% and the “early apoptotic cells (Annexin V+/PI-)” value (DU145 cells [2]; 5 µM, 15 min) was 35.36%. The “Annexin V+/PI+ cells (necrotic)” value (DU145 cells [2]; 10 µM, 10 min) was 29.93%, the “early apoptotic cells (Annexin V+/PI-)” value (DU145 cells [2]; 10 µM, 10 min) was 43.18% and the “loss of cell viability” value ([3]; 10 µM, 1 h, CCK-8) was “over 90%”. The IC50 ([3]; 1 h) was 1.7 to 3.5 µM, the “IC50 in tumor cells, times lower than B28” value ([3]; IC50 ratio versus unconjugated B28) was “approximately 10 times” and the IC50 [4] was 10.8 to 16.8 µM.
